Patent US20230220065A1, “ANTIBODIES TO INTERLEUKIN-1BETA AND USES THEREOF” (ACADEMIA SINICA, priority 2020, published 2023)
“Also recorded” adds a separate entry of the source.

How the values were obtained:
human IL-1β-induced IL-6 = test: Cytokine biomarker assay: human IL-1β-induced serum IL-6 in mice; format: in vivo; conditions: 0.2 mg/kg antibody intravenously, human IL-1β 240 ng/mouse intraperitoneally, male C57BL/6 mice
Experimental: FIG. 5 illustrates cytokine biomarker assay. (A) The concentration of injected IgG1 at different time courses to compare the stability of IgG in male C57BL/6 mouse serum. […] Then, the mice were injected intraperitoneally with human IL-1β (240 ng/200 μL/mouse). Two hours after the injection, the mice were restrained, and blood was collected to detect the serum IL-6 level in the mice. IgG26AW treatment can inhibit the 40% induction of IL-6, which responds to human IL-1β boosting.
Then, the mice were injected intraperitoneally with recombinant human IL-1β (R&D systems) 240 ng/200 μL/mouse; then, 2.5 hours after the injection (peak IL-6 response time), the mice were restrained, and blood was collected via a facial vein with a lancet. Serum mouse IL-6 levels were measured using a Quantikine ELISA Kit (R&D System) according to the manufacturer's protocol.
To determine whether various rodent and primate disease models could be used to test the in vivo efficacy of IgG26AW, the ability of IgG26AW to bind a number of species orthologs of IL-1β was measured by SPR. […] This affinity is not sufficient to test IgG26AW efficacy in mouse disease models. […] Moreover, concentrations of IgGs after the injection in the serum were evaluated in different time courses.

[1] = system: IL-1β-induced NF-κB signaling in HEK-blue IL-1β cells; test: In vitro IL-1β neutralization assay in HEK-blue IL-1β reporter cells (SEAP); format: cell-based, human
Source text: FIG. 1 illustrates inhibitory effect on IL-1β-induced NF-κB signaling of different selected IgGs from generic human phage-display libraries in HEK-blue IL-1β cells. (A) IL-1β bound to its receptor IL-1RI and its receptor accessory protein IL-1RAcP to form the IL-1β/IL-1RI/IL-1RAcP ternary complex. IL-1β induces downstream signaling pathways, including NF-κB activation (IκB degradation) and AP-1 activation (phosphorylation of JNK, p38 and ERK). (B) Ten IgGs bound to human IL-1β were selected from the generic human phage-display library.
FIG. 4 illustrates the comparison of IL-1β neutralizing abilities in different IL-1β-neutralizing antibodies. IL-1β was diluted from 1500 to 0 pM. Each antibody was added at a 5 nM concentration with different concentrations of IL-1β. HEK-blue-IL-1β cells were used to detect the IgG inhibitory effects of IL-1β signaling. The binding curve was fitted by a nonlinear regression curve to obtain the IC50.
FIG. 8 illustrates binding affinities and inhibitory effects of IgG variants selected from optimized IgG26 phage-display libraries. […] (B) Inhibitory effects on IL-1β-mediated downstream signaling were examined in 30 pM IL-1β-stimulated HEK-blue reporter cells. […]
After 16 hours, the inhibitory effect of IL-1β-induced signaling was monitored by SEAP assay. […]

[2] = molecular target: recombinant human IL-1β (117-269 amino acids, without the pro-peptide region) (human) (UniProt P01584)
[3] = molecular target: recombinant human IL-1β (R&D systems) (human) (UniProt P01584)

canakinumab: marketed anti-IL-1β antibody (Novartis), synthesized from patent US20090232803
inhibition of human IL-1β-induced systemic (serum) IL-6 (human IL-1β-induced IL-6): 47%

O=C(OC[C@H]1O[C@@H](OC(=O)c2cc(O)c(O)c(O)c2)[C@H](OC(=O)c2cc(O)c(O)c(O)c2)[C@@H](OC(=O)c2cc(O)c(O)c(O)c2)[C@@H]1OC(=O)c1cc(O)c(O)c(O)c1)c1cc(O)c(O)c(O)c1 [PGG, 1,2,3,4,6-Penta-O-Galloyl-β-D-Glucose]
NF-κB signaling inhibition of low dose IgG26AW combined with PGG ([1]; 69 pM IgG26AW combined with 50 μM PGG, IL-1β 588 to 0 pM (FIG. 14)): efficiently inhibits the NF-κB signaling as similar as 690 pM IgG26AW can do
effect of PGG cotreatment with IgG26AW on IL-1β induced NF-κB signaling ([1]; 75 pM IL-1β, IgG26AW 69 nM to 0 nM, PGG 30 μM or 50 μM (FIG. 13)): synergistically reduce NF-kB signaling; also recorded: dose-dependent inhibitory effect on NF-κB signaling

canakinumab (antibody)
IL-1β concentration whose NF-κB signal is half inhibited by 5 nM antibody (HEK-blue IL-1β cells, SEAP assay; called IC50 in the legend) [2]: 0.925 nM
human IL-1β-induced systemic IL-6 expression in C57BL/6 mice (serum mouse IL-6, ELISA) [3]: 47%
